Source: US5103007A, “Lipids” (Takeda Chemical Industries, Ltd., priority 1988, dated 1992)
≈ marks a conversion by molar mass, not a printed value.

Tests used:
[1] = system: human colon adenocarcinoma (colon 205 cells); assay: Inhibition of multiplication of human colon adenocarcinoma (colon 205 cells), MTT assay; type: cell-based; conditions: 72 hours
Protocol: (§1) The effect (IC50) of the compounds obtained by Examples in inhibiting multiplication of human nasopharynx cancer (KB cells) and human colon adenocarcinoma (colon 205 cells) Each well of a 96-well microtiter plate was inoculated with 0.1 ml of human nasopharynx cancer (KB cells) (1×10^4 /ml) or human colon adenocarcinoma (colon 205 cells) (2×10^4 /ml), which was then subjected to cultivation by allowing to stand at 37° C. for 24 hours in 5% CO2. To the culture was added a 10% MEM solution (manufactured by Nissui Seiyaku or RPMI-1640), and cultivation was continued at 37° C. for 72 hours in 5% CO2. Then, the culture solution was removed with a micro-pipette. […] Incubation was conducted at 37° C for 4 hours, to which was then added 0.1 ml of a 10% SDS (Wako Pure Chemical Industries, Ltd.), and the incubation was continued at 37° C. for 24 hours.

[2] = system: human nasopharynx cancer (KB cells); assay: Inhibition of multiplication of human nasopharynx cancer (KB cells), MTT assay; type: cell-based; conditions: 72 hours
Protocol: as §1

IC50 [1]	IC50 [2]	Compound
1.25 µg/mL (≈ 1.74 µM)	0.63 µg/mL (≈ 0.876 µM)	CCCCCCCCCCCCCCCCCCOCC(CSCCCOCCC[n+]1ccn(CCCCCC(=O)[O-])c1)Oc1ncccn1 (stereo not shown) [Ex. 13, 6-[3-[3-[3-[3-octadecyloxy-2-(pyrimidin-2-yloxy)propylthio]propoxy]propyl]imidazolio-1-yl]hexanoate]
0.63 µg/mL	0.32 µg/mL	CCCCCCCCCCCCCCCCCCOCC(C[S+]([O-])CCOCC[n+]1ccc2ccccc2c1)Oc1ncccn1.[Cl-] (stereo not shown) [Ex. 4, N-[2-[2-[3-octadecyloxy-2-(pyrimidin-2-yloxy)propylsulfinyl]ethoxy]ethyl]isoquinolinium chloride]
1.25 µg/mL	0.32 µg/mL	CCCCCCCCCCCCCCCCCCOCC(CSCCOCC[N+](C)(C)C)OC (stereo not shown) [Ex. 43, N-[2-(2-methoxy-3-oxtadecyloxypropylthio)ethoxy]ethyl-N,N,N-trimethylammonium chloride]
0.63 µg/mL	0.16 µg/mL	CCCCCCCCCCCCCCCCCCOCC(C[S+]([O-])CCOCC[n+]1ccc(N(C)C)cc1)Oc1ncccn1.[Cl-] (stereo not shown) [Ex. 7, 4-dimethylamino-1-[2-[2-[3-octadecyloxy-2-(pyrimidin-2-yloxy)propylsulfinyl]ethoxy]ethyl]pyridinium chloride]
1.25 µg/mL	0.32 µg/mL	CCCCCCCCCCCCCCCCCCOCC(CSCCOCC[N+]1(C)CCCC1)Oc1ncccn1.[Cl-] (stereo not shown) [Ex. 22, N-methyl-N-[2-[2-[3-octadecyloxy-2-(pyrimidin-2-yloxy)propylthio]ethoxy]ethyl]pyrrolidinium chloride]
0.63 µg/mL	0.32 µg/mL	CCCCCCCCCCCCCCCCCCOCC(C[S+]([O-])CCOCC[n+]1ccccc1)Oc1ccncn1.[Cl-] (stereo not shown) [Ex. 34, N-[2-[2-[3-octadecyloxy-2-(pyrimidin-4-yloxy)propylsulfinyl]ethoxy]ethyl]pyridinium chloride]
0.63 µg/mL	1.25 µg/mL	CCCCCCCCCCCCCCCCCCOCC(CSCCOCC[n+]1ccn(CCC(C)(C)C(=O)OCC)c1)Oc1ncccn1 (stereo not shown) [Ex. 26, 1-[(3-ethoxycarbonyl-3-methyl)butyl]-3-[2-[2-[3-octadecyloxy-2-(pyrimidin-2-yloxy)propylthio]-ethoxy]ethyl]imidazolium choride]
5 µg/mL (≈ 7.27 µM)	0.32 µg/mL (≈ 0.465 µM)	CCCCCCCCCCCCCCCCCCOCC(CSCCOCC[n+]1cccc(CCCCC(=O)[O-])c1)Oc1ncccn1 (stereo not shown) [Ex. 37, 5-[1-[2-[2-[3-octadecyloxy-2-(pyrimidin-2-yloxy)propylthio]ethoxy]ethyl]pyridinio-3-yl]pentanoate]
0.63 µg/mL	0.63 µg/mL	CCCCCCCCCCCCCCCCCCOCC(CSCCOCC[N+](C)(C)C)Oc1ncccn1.[Cl-] (stereo not shown) [Ex. 23, N-[2-[2-[3-octadecyloxy-2-(pyrimidin-2-yloxy)propylthio]ethoxy]ethyl]-N,N,N-trimethylammonium chloride]
0.32 µg/mL	0.16 µg/mL	CCCCCCCCCCCCCCCCCCOCC(C[S+]([O-])CCOCC[N+]1(C)CCCC1)Oc1ncccn1.[Cl-] (stereo not shown) [Ex. 30, N-methyl-N-[2-[2-[3-octadecyloxy-2-(pyrimidin-2-yloxy)propylsulfinyl]ethoxy]ethyl]pyrrolidinium chloride]
2.5 µg/mL (≈ 4.17 µM)	0.63 µg/mL (≈ 1.05 µM)	CCCCCCCCCCCCCCCCCCOCC(CSCCOCC[n+]1ccn(CCCC(=O)[O-])c1)OC (stereo not shown) [Ex. 45, 4-[3-[2-[2(2-methoxy-3-octadecyloxypropylthio)ethoxy]ethyl]imidazolio-1-yl]butyrate]
1.25 µg/mL	0.32 µg/mL	CCCCCCCCCCCCCCCCCCOCC(CS(=O)(=O)CCCOCCC[N+](C)(C)C)Oc1ncccn1.[Cl-] (stereo not shown) [Ex. 17, N-[3-[3-[3-octadecyloxy-2-(pyrimidin-2-yloxy)propylsulfonyl]propoxy]propyl]-N,N,N-trimethylammonium chloride]
0.32 µg/mL	0.16 µg/mL	CCCCCCCCCCCCCCCCCCOCC(C[S+]([O-])CCOCC[n+]1cccc2ccccc21)Oc1ncccn1 (stereo not shown) [Ex. 5, N-[2-[2-[3-octadecyloxy-2-(pyrimidin-2-yloxy)propylsulfinyl]ethoxy]quinolinium chloride]
1.25 µg/mL	0.63 µg/mL	CCCCCCCCCCCCCCCCCCOCC(CSCCOCC[n+]1ccccc1)Oc1ccncn1.[Cl-] (stereo not shown) [Ex. 32, N-[2-[2-[3-octadecyloxy-2-(pyrimidin-4-yloxy)propylthio]ethoxy]ethyl]pyridinium chloride]
0.63 µg/mL	0.16 µg/mL	CC(C)CCCC(C)CCCC(C)CCCC(C)CCOCC(C[S+]([O-])CCOCC[n+]1ccccc1)Oc1ncccn1.[Cl-] (stereo not shown) [Ex. 39, N-[2-[2-[2-(pyrimidin-2-yloxy)-3-(3,7,11, 15-tetramethylhexadecyloxy)propylsulfinyl]ethoxy]ethyl]-pyridinium chloride]
0.63 µg/mL	0.16 µg/mL	CCCCCCCCCCCCCCCCCCOCC(CS(=O)(=O)CCCOCCC[n+]1ccccc1)Oc1ncccn1.[Cl-] (stereo not shown) [Ex. 16, N-[3-[3-[3-octadecyloxy-2-(pyrimidin-2-yloxy)propylsulfonyl]propoxy]propyl]pyridinium chloride]
0.63 µg/mL	< 0.08 µg/mL	CCCCCCCCCCCCCCCCCCOCC(CS(=O)(=O)CCOCC[n+]1ccccc1)Oc1ncccn1.[Cl-] (stereo not shown) [Ex. 20, N-[2-[2-[3-octadecyloxy-2-(pyrimidin-2-yloxy)propylsulfonyl]ethoxy]ethyl]pyridinium chloride]
1.25 µg/mL	1.25 µg/mL	CCCCCCCCCCCCCCCCCCOCC(CS(=O)(=O)CCCOCCC[n+]1ccsc1)Oc1ncccn1 (stereo not shown) [Ex. 15, 3-[3-[3-octadecyloxy-2-(pyrimidin-2-yloxy)propylsulfonyl]propoxy]propylthiazolium chloride]
0.32 µg/mL	0.16 µg/mL	CCCCCCCCCCCCCCCCCCOCC(C[S+]([O-])CCOCC[N+](C)(C)C)OC.[Cl-] (stereo not shown) [Ex. 44, N-[2-[2-(2-methoxy-3-octadecyloxypropylsulfinyl)ethoxy]ethyl]-N,N,N-trimethylammonium chloride]
2.5 µg/mL	0.32 µg/mL	CCCCCCCCCCCCCCCCCCOCC(CSCCOCC[n+]1ccn(CCCCCC(=O)OCC)c1)Oc1ncccn1 (stereo not shown) [Ex. 25, 1-[(5-ethoxycarbonyl)pentyl]-3-[2-[2-[3-octadecyloxy-2-(pyrimidin-2-yloxy)propylthio]ethoxy]ethyl]imidazolium chloride]
0.63 µg/mL	< 0.08 µg/mL	[Cl-].[O-][S+](CCOCC[n+]1ccccc1)CC(COCCCCCCCCCCCCC1CCCCC1)Oc1ncccn1 (stereo not shown) [Ex. 29, 1-[2-[2-[3-(12-cyclohexyldodecyloxy)-2-(pyrimidin-2yloxy)propylsulfinyl]ethoxy]ethyl]pyridinium chloride]
2.5 µg/mL (≈ 4.01 µM)	0.32 µg/mL (≈ 0.513 µM)	CCCCCCCCCCCCCCCCCCOCC(CSCCOCC[n+]1cccc(CCCCC(=O)[O-])c1)OC (stereo not shown) [Ex. 46, 5-[1-[2-[2-(2-methoxy-3-octadecyloxypropylthio)ethoxy]ethyl]pyridinio-3-yl]-pentanoate]
2.5 µg/mL (≈ 3.48 µM)	0.63 µg/mL (≈ 0.876 µM)	CC(C)CCCC(C)CCCC(C)CCCC(C)CCOCC(CSCCOCC[n+]1ccn(CCCCCC(=O)[O-])c1)Oc1ncccn1 (stereo not shown) [Ex. 38, 6-[3-[2-[2-[2-(pyrimidin-2-yloxy)-3-(3,7, 11,15-tetramethylhexadecyloxy)propylthio]ethoxy]ethyl]-imidazolio-1-yl)hexanoate]
